US11707447B1
Where “and” joins values, the source holds several entries; their conditions need not be identical. Equal values may be shown once. Entries after “also recorded” stand apart in the source; their conditions may differ.

Experiments:
[1] = In vitro metabolic stability / psilocin release, human AB serum; format: in vitro ADME
From the text: A fundamental evaluation in drug development is the assessment of absorption, distribution, metabolism, excretion, and pharmacokinetics (ADME/PK) (Eddershaw et al., 2000, Drug Discovery Today 5(9): 409-414). […] Drug stability upon exposure to human liver microsomes and liver S9 cellular fractions is a common in vitro assay to approximate in vivo, liver-based drug metabolism (Richardson et al., 2016 Drug Metabolism Letters 10:83-90). First-pass metabolism is also often approximated in vitro using intestinal microsome and cellular S9 fractions (Hatley et al., 2017, Biopharmaceuticals & Drug Disposition, 38(2):155-160). Further, it is well known that human serum, and particularly circulating serum esterases can contribute to systemic drug metabolism (Williams, F M 1987, Pharmacology and Therapeutics, 34:99-109). Many pharmacological agents are classified as prodrugs, as they undergo metabolic transformation in vivo upon administration to release the active drug compound into the systemic compartment (Zawilska J B, et al. 2013, Pharmacological Reports, 65:1-14). Psilocybin, a serotonergic psychedelic agent, is well known prodrug that is metabolized into the psychoactive product, psilocin (Dinis-Oliveira, R J 2017, Drug Metabolism Reviews, 49(1):84-91). To evaluate the capacity of test molecules to similarly serve as prodrugs of psilocin, time-dependent, metabolic stability assays using human AB serum, human intestinal microsomes (HIM), human intestinal S9 fractions (HIS9), human liver microsomes (HLM), human liver S9 fractions (HLS9), human alkaline phosphatase, and porcine esterase were performed. […] Liquid chromatography coupled mass spectrometry (LC-MS) was employed to track the conversion of the test molecules into psilocin. All intestinal and liver fractions and NADPH RapidStart reagent was purchased from Sekisui/XenoTech. Human AB serum was purchased from Sigma. […] Supernatants were analyzed for the presence of candidate prodrugs (parent molecule) and psilocin (the predicted metabolite) using Orbitrap LC-MS (Thermo Scientific) using previously described methods (Menéndez-Perdomo et al., 2021, J. Mass Spectrom., 56: e4683). […] Assay concentrations (μM) of both parent ‘prodrug’ molecule and psilocin metabolite, as quantified through LC-MS using routine standard curve procedures, were plotted as functions of assay time (minutes). The metabolism rate (T1/2) was determined from the metabolism curve plot using the one phase decay feature of GraphPad PRISM software (Version 9.2.0). The quantity of parent prodrug at time zero was set as 100%. […]

[2] = biological target: T1, 5-HT2A receptor (Mus musculus, UniProt P35363); assay: Drug-induced Head Twitch Response (HTR) in mice; format: in vivo; conditions: 1 mg/kg i.p., 15-to-30-minute window after dosing, vs vehicle
T1 construct: tissue Charles River; host or cells: whole animal, C57BL/6-Elite mice (brain neurons)

[3] = biological target: ADRA1A (Homo sapiens, UniProt P35348); assay: SAFETYscan calcium secondary messenger assay (agonist/antagonist mode); format: cell-based
[4] = biological target: AVPR1A (Homo sapiens, UniProt P37288); assay: as above; format: cell-based
[5] = biological target: CHRM1 (Homo sapiens, UniProt P11229); assay: cell-based
[6] = biological target: HTR2B (5-HT2B) (Homo sapiens, UniProt P41595); assay: SAFETYscan calcium secondary messenger assay (agonist/antagonist mode); format: cell-based
[7] = biological target: NMDAR (Homo sapiens, UniProt Q05586+Q13224); assay: SAFETYscan ion channel assay, FLIPR membrane potential (opener/blocker); format: cell-based
[8] = Mouse pharmacokinetic (PK) evaluation of drug metabolism to psilocin; conditions: for AUC(0-inf): AUC0-inf (parent compound in plasma); for half-life: Apparent t1/2 (parent compound in plasma); for clearance: CL (parent compound); for MRT inf: MRT0-inf (parent compound)
[9] = biological target: CHRM2 (Homo sapiens, UniProt P08172); assay: SAFETYscan EFC-based cAMP secondary messenger assay (agonist/antagonist mode)
[10] = biological target: OPRD1 (Homo sapiens, UniProt P41143); assay: as above
[11] = male, C57Bl/6, mouse, plasma, iv, 1 mg/kg, 1 mg/kg i.v., individual mice
[12] = male, C57Bl/6, mouse, plasma, iv, 1 mg/kg, 1 mg/kg i.v., mean

Chain of CHRM1 (P11229 whole entry): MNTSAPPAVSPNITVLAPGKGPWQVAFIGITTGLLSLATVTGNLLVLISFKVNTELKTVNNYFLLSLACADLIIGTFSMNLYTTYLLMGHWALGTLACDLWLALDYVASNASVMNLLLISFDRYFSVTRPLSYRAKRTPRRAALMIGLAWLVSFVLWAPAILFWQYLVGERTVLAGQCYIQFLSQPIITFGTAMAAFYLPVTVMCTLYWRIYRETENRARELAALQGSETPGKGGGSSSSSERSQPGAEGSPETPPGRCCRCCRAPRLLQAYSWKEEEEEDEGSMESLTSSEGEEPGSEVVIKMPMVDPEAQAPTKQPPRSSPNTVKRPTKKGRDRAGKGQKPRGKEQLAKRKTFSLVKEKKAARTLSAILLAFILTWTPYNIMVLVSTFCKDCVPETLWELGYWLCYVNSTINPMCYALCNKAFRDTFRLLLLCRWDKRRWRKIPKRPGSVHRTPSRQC
T1 sequence (P35363 whole entry): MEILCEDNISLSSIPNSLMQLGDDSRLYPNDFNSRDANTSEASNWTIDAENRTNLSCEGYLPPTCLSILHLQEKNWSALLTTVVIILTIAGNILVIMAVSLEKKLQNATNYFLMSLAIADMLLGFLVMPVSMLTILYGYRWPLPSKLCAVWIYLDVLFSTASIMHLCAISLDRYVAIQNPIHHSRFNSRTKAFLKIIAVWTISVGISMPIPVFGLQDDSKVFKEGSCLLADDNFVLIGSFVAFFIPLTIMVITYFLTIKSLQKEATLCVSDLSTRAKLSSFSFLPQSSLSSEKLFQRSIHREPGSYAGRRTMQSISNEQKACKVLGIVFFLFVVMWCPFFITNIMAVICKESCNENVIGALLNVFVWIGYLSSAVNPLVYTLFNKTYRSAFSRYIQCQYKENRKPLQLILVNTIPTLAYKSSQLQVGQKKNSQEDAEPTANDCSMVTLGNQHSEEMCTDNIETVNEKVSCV
Chain of OPRD1 (P41143 whole entry): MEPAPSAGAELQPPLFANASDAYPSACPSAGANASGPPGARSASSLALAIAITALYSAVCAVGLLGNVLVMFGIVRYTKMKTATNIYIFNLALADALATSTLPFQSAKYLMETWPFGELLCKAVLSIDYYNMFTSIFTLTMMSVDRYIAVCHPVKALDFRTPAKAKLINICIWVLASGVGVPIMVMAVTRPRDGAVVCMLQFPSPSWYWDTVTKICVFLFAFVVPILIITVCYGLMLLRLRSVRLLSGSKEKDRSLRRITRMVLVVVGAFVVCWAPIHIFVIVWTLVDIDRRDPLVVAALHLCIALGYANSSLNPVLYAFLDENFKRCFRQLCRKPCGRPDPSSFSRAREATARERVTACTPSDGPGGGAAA
Chain of NMDAR (Q13224 27-1484, other chains not shown): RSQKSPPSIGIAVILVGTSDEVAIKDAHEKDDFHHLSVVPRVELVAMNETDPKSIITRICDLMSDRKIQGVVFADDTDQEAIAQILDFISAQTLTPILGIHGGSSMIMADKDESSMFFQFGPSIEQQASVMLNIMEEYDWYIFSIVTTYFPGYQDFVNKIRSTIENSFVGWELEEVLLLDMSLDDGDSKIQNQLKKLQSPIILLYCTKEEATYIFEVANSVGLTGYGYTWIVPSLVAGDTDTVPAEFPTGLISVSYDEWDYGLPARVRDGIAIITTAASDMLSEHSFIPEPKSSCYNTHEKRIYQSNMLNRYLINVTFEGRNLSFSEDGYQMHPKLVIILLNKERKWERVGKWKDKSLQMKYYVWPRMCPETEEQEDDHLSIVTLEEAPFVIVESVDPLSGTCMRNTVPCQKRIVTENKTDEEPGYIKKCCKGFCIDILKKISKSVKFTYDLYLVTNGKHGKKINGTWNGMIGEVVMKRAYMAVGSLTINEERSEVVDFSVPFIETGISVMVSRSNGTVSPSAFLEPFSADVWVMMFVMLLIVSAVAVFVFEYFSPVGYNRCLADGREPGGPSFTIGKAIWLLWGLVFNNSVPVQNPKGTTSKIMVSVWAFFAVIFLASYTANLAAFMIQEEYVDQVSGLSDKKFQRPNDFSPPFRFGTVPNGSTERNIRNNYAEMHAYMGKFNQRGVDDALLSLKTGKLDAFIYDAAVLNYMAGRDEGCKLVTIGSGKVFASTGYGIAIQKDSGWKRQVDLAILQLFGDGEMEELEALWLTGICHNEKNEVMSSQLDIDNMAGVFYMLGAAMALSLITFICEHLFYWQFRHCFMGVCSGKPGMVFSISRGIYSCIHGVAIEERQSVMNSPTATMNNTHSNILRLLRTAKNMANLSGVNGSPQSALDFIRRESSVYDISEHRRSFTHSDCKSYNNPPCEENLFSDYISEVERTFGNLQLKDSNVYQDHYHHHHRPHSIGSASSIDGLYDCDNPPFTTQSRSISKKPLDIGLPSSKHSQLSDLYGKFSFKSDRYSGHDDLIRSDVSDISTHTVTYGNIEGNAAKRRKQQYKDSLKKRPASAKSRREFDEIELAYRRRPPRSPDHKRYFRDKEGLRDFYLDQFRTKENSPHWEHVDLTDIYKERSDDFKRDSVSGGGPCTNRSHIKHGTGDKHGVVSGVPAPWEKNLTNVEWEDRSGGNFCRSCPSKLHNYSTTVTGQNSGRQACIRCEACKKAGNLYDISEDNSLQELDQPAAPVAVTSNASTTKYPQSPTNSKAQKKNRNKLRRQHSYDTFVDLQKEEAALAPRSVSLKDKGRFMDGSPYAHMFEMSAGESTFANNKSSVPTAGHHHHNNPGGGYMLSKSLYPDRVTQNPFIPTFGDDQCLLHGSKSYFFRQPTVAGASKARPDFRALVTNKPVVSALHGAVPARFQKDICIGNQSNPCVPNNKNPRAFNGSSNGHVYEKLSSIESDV
Chain of ADRA1A (P35348 whole entry): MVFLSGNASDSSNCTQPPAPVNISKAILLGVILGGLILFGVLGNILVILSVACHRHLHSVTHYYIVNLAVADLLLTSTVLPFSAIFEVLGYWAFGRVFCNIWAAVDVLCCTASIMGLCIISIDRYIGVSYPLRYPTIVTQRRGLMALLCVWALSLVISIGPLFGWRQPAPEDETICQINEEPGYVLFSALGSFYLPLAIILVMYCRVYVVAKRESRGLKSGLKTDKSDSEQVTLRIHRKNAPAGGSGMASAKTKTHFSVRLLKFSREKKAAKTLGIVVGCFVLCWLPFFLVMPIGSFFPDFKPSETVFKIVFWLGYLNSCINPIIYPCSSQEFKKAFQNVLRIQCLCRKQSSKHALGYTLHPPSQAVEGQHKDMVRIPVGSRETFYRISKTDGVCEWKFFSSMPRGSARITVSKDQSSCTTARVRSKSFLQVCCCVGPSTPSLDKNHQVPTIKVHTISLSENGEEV
Chain of AVPR1A (P37288 whole entry): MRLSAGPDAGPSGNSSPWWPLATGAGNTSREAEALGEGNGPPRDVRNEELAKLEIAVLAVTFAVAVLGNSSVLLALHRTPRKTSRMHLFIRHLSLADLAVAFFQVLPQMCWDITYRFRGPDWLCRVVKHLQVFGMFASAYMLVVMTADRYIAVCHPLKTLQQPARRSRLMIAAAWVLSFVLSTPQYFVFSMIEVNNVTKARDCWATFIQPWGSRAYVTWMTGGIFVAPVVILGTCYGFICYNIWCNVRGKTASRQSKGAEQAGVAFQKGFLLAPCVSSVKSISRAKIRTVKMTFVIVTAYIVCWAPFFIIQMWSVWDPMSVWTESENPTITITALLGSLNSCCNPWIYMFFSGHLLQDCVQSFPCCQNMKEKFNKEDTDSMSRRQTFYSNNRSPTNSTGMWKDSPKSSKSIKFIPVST
Chain of CHRM2 (P08172 whole entry): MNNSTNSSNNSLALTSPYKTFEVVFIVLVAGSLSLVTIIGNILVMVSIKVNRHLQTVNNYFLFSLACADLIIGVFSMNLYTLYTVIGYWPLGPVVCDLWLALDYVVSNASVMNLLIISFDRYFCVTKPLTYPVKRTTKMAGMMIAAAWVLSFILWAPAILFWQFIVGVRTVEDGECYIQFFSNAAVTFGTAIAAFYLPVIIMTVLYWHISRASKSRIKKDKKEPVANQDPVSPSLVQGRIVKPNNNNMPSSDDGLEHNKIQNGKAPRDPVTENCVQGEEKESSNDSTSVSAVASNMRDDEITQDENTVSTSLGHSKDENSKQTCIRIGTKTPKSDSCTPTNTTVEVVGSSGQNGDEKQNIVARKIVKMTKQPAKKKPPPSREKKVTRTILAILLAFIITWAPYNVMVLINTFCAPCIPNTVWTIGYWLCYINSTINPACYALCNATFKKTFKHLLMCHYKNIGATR
Chain of HTR2B (5-HT2B) (P41595 whole entry): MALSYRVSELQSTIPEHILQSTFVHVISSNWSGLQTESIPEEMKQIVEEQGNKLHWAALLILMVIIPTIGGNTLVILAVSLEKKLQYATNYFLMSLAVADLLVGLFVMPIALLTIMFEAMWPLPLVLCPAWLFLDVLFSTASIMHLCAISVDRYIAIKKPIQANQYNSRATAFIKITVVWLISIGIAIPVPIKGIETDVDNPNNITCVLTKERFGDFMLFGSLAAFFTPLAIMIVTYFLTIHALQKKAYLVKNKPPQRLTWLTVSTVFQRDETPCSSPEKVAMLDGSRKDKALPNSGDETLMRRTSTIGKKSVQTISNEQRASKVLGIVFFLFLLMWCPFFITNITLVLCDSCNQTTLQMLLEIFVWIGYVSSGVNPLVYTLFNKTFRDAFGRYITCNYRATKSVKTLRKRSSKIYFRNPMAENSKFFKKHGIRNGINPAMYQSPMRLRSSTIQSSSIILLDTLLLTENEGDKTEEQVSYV

## CN(C)CCc1c[nH]c2cccc(OC(=O)SCc3ccccc3)c12 [E(VI)]
[1]; AB serum
  metabolic stability / conversion to psilocin (in words): quickly converted to psilocin in liver fractions and serum; also recorded: nearly completely disappears upon in vitro exposure to AB serum, but yields low quantities of psilocin
[1]; pH 7.4, 10% human AB serum, read-out: half-life (T1/2)
  half-life: 14 min
[2]
  Head Twitch Response (in words): Elevated incidences of HTR; also recorded: elevated response was observed in mice treated with E(VI) compared to B(II)
[3]
  EC50: > 100 µM
  IC50: 1090 nM
[4]
  EC50: > 100 µM
  IC50: > 100 µM
[5]; agonist mode
  EC50: > 100 µM
[5]; antagonist mode
  IC50: 15.1 µM
[6]
  EC50: > 100 µM
  IC50: 85.7 nM
[7]
  EC50: > 100 µM
  IC50: 15 µM
[8]; 1 mg/kg i.v., 5 min, individual mice
  Plasma concentration of administered (parent) compound: 3.20 ng/mL and 59.0 ng/mL and 11.1 ng/mL
[8]; 1 mg/kg i.v., 0.25 h, individual mice
  Plasma concentration of administered (parent) compound: 72.1 ng/mL and 110 ng/mL and 7.79 ng/mL
[8]; 1 mg/kg i.v., 0.5 h, individual mice
  Plasma concentration of administered (parent) compound: 13.1 ng/mL and 9.29 ng/mL and 1.03 ng/mL
[8]; 1 mg/kg i.v., 1 h, individual mice
  Plasma concentration of administered (parent) compound: 5.84 ng/mL and No Peak
[8]; 1 mg/kg i.v., 2 h, individual mice
  Plasma concentration of administered (parent) compound: 0.594 ng/mL and No Peak
[8]; 1 mg/kg i.v., 4 h, individual mice
  Plasma concentration of administered (parent) compound: BLQ (2×) and No Peak
[8]; 1 mg/kg i.v., 6 h, individual mice
  Plasma concentration of administered (parent) compound: No Peak (2×) and BLQ
[8]; 1 mg/kg i.v., 8 h, individual mice
  Plasma concentration of administered (parent) compound: No Peak
[8]; 1 mg/kg i.v., individual mice
  AUC0-inf (parent compound in plasma): 35.5 ng·h/mL
  AUC0-tlast (parent compound in plasma): 20.4 ng·h/mL and 35.2 ng·h/mL and 3.40 ng·h/mL
  AUC0-tlast/Dose (parent compound in plasma): 20.4 kg·ng·h/mL/mg and 35.2 kg·ng·h/mL/mg and 3.40 kg·ng·h/mL/mg
  Apparent t1/2 (parent compound in plasma): 21.9 min
  C0 (parent compound in plasma): 3.20 ng/mL and 59.0 ng/mL and 13.2 ng/mL
  CL (parent compound): 469.32 mL/min/kg
  MRT0-inf (parent compound): 21.6 min
  Vss (parent compound): 23899 mL/kg and 10146 mL/kg
[8]; 1 mg/kg i.v., mean ± SD
  AUC0-tlast/Dose (parent compound in plasma): 19.7 ± 15.9 kg·ng·h/mL/mg
[8]; 1 mg/kg oral
  detection of administered compound in plasma (in words): neither B(II) nor E(VI) were detected in plasma
[8]; 1 mg/kg oral of administered compound, 8 h, individual mice
  Plasma concentration of psilocin: BLQ
[8]; 1 mg/kg oral of administered compound, 24 h, individual mice
  Plasma concentration of psilocin: No Peak
[8]; 3 mg/kg oral of administered compound, 24 h, individual mice
  Plasma concentration of psilocin: No Peak (2×) and BLQ
[8]; 10 mg/kg oral of administered compound, 24 h, individual mice
  Plasma concentration of psilocin: BLQ
[8]; male, C57Bl/6, mouse, plasma, intravenous, 1 mg/kg, Plasma concentration of administered (parent) compound, 1 mg/kg i.v., 5 min, mean ± SD
  concentration at 5 min: 24.4 ± 30.2 ng/mL
[8]; male, C57Bl/6, mouse, plasma, intravenous, 1 mg/kg, Plasma concentration of administered (parent) compound, 1 mg/kg i.v., 0.25 h, mean ± SD
  concentration at 0.25 h: 63.3 ± 51.7 ng/mL
[8]; male, C57Bl/6, mouse, plasma, intravenous, 1 mg/kg, Plasma concentration of administered (parent) compound, 1 mg/kg i.v., 0.5 h, mean ± SD
  concentration at 0.5 h: 7.81 ± 6.17 ng/mL
[8]; male, C57Bl/6, mouse, plasma, intravenous, 1 mg/kg, Plasma concentration of administered (parent) compound, 1 mg/kg i.v., 1 h, individual mice
  concentration at 1 h: 3.14 ng/mL
[8]; male, C57Bl/6, mouse, plasma, intravenous, 1 mg/kg, Plasma concentration of administered (parent) compound, 1 mg/kg i.v., 1 h, mean
  concentration at 1 h: 4.49 ng/mL
[8]; male, C57Bl/6, mouse, plasma, intravenous, 1 mg/kg, Plasma concentration of administered (parent) compound, 1 mg/kg i.v., 2 h, individual mice
  concentration at 2 h: 0.776 ng/mL
[8]; male, C57Bl/6, mouse, plasma, intravenous, 1 mg/kg, Plasma concentration of administered (parent) compound, 1 mg/kg i.v., 2 h, mean
  concentration at 2 h: 0.685 ng/mL
[8]; [11]
  AUC(0-inf): 20.8 ng·h/mL
  half-life: 22.9 min
  clearance: 801 mL/min/kg
  MRT inf: 29.8 min
[8]; [12]
  AUC(0-inf): 28.2 ng·h/mL
  clearance: 635 mL/min/kg
  MRT inf: 25.7 min
[8]; male, C57Bl/6, mouse, plasma, iv, 1 mg/kg, AUC0-tlast (parent compound in plasma), 1 mg/kg i.v., mean ± SD
  AUC(0-t): 19.7 ± 15.9 ng·h/mL
[8]; male, C57Bl/6, mouse, plasma, iv, 1 mg/kg, 1 mg/kg i.v., mean ± SD
  half-life: 22.4 ± 0.708 min
[8]; male, C57Bl/6, mouse, plasma, iv, 1 mg/kg, C0 (parent compound in plasma), 1 mg/kg i.v., mean ± SD
  C0: 25.1 ± 29.7 ng/mL
[8]; male, C57Bl/6, mouse, plasma, iv, 1 mg/kg, Vss (parent compound), 1 mg/kg i.v., mean
  Vd: 17 L/kg
[8]; oral vs i.v. dosing
  detectability of administered compound in plasma (in words): did not yield any detectable levels of E(VI); also recorded: never detected at any timepoint
[9]
  EC50: > 100 µM
  IC50: 51.2 µM
[10]
  EC50: 28.5 µM
  IC50: > 100 µM
